The test relates to P388 leukemia ip, CD2F1 mice, survival T/C. Briefly: NCI In Vivo Anticancer Drug Screen. Data for tumor model P388 Leukemia (intraperitoneal) in CD2F1 (CDF1) mice. The following applies: endpoint: median survival time, higher = longer survival. Summed up:
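Mice carrying the transplanted tumor received test compound or vehicle. Survival was recorded in each group, and the value is the treated-group measurement divided by that of the vehicle-treated control group.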

The mark [1] stands for this setting: dose: 50.0 mg/kg/injection, schedule: Q01DX009 (ip), vehicle: saline with Tween-80.
The mark [2] stands for this setting: dose: 100.0 mg/kg/injection, schedule: Q01DX009 (ip), vehicle: saline with Tween-80.
The mark [3] stands for this setting: dose: 200.0 mg/kg/injection, schedule: Q01DX009 (ip), vehicle: saline with Tween-80.

“And” between values parts separate entries of the source, which are not always exact repeats. Equal entries are not always repeated. Toxic doses and inconclusive results are not listed.

Drawing on PubChem BioAssay AID330 (DTP/NCI, 2004), this text covers T/C for 13 compounds.

`CC(=O)OC(c1ccccc1)N(Cc1ccccc1)N=O` (stereo not drawn): the T/C (dose: 12.5 mg/kg/injection, schedule: Q01DX009 (ip), vehicle: distilled water + Tween-80) is 111 % of control; the T/C (dose: 25.0 mg/kg/injection, schedule: Q01DX009 (ip), vehicle: distilled water + Tween-80) is 111 % of control; the T/C (dose: 50.0 mg/kg/injection, schedule: Q01DX009 (ip), vehicle: distilled water + Tween-80) was 118 % of control; the T/C (dose: 100.0 mg/kg/injection, schedule: Q01DX009 (ip), vehicle: distilled water + Tween-80) was 117 % of control; the T/C (dose: 200.0 mg/kg/injection, schedule: Q01DX009 (ip), vehicle: distilled water + Tween-80) is 119 % of control.
Regarding `CCOC(=O)c1nc(C)nc(N)c1C`, the T/C is 102 % of control (dose: 12.5 mg/kg/injection, schedule: Q01DX009 (ip), vehicle: water); 91 % of control (dose: 25.0 mg/kg/injection, schedule: Q01DX009 (ip), vehicle: water); 93 % of control (dose: 50.0 mg/kg/injection, schedule: Q01DX009 (ip), vehicle: water); 100 % of control (dose: 100.0 mg/kg/injection, schedule: Q01DX009 (ip), vehicle: water); 100 % of control (dose: 200.0 mg/kg/injection, schedule: Q01DX009 (ip), vehicle: water).
With `COC(=O)C1(c2cc3c(cc2OC)N(C)C2CCCCC32)CCCCCc2c1[nH]c1ccccc21` (stereo not drawn), the T/C reads like this: (dose: 12.5 mg/kg/injection, schedule: Q01DX001 (ip), vehicle: distilled water + Tween-80) 106 % of control; (dose: 25.0 mg/kg/injection, schedule: Q01DX001 (ip), vehicle: distilled water + Tween-80) 100 % of control; (dose: 50.0 mg/kg/injection, schedule: Q01DX001 (ip), vehicle: distilled water + Tween-80) 104 % of control; (dose: 100.0 mg/kg/injection, schedule: Q01DX001 (ip), vehicle: distilled water + Tween-80) 100 % of control; (dose: 200.0 mg/kg/injection, schedule: Q01DX001 (ip), vehicle: distilled water + Tween-80) 97 % of control.
Consider `Cn1cc(NC(=O)c2cc(NC(=O)c3cc(NC=O)cn3C)cn2C)cc1C(=O)NCCC(=N)N`, for which the T/C is 100 % of control (dose: 15.0 mg/kg/injection, schedule: Q01DX005 (ip), vehicle: water); 101 % of control (dose: 30.0 mg/kg/injection, schedule: Q01DX005 (ip), vehicle: water); 96 % of control (dose: 60.0 mg/kg/injection, schedule: Q01DX005 (ip), vehicle: water); 104 % of control (dose: 120.0 mg/kg/injection, schedule: Q01DX005 (ip), vehicle: water).
Turning to `CCN(CC)CCCC(C)Nc1cc(-c2ccccc2)nc2cc(Cl)ccc12` (stereo not drawn), the T/C is 106 % of control (dose: 50.0 mg/kg/injection, schedule: Q01DX005 (ip), vehicle: saline); 112 % of control (dose: 100.0 mg/kg/injection, schedule: Q01DX005 (ip), vehicle: saline); 116 % of control (dose: 200.0 mg/kg/injection, schedule: Q01DX005 (ip), vehicle: saline).
Regarding `Cc1ccc(C(=O)CC2(O)C(=O)Nc3ccccc32)cc1` (stereo not drawn), the T/C runs as follows: (dose: 50.0 mg/kg/injection, schedule: Q01DX009 (ip), vehicle: Klucel (hydroxypropylcellulose) (HPC)) 96 % of control; (dose: 100.0 mg/kg/injection, schedule: Q01DX009 (ip), vehicle: Klucel (hydroxypropylcellulose) (HPC)) 92 % of control; (dose: 200.0 mg/kg/injection, schedule: Q01DX009 (ip), vehicle: Klucel (hydroxypropylcellulose) (HPC)) 87 % of control.
Take `O=S1(=O)CS(=O)(=O)OCCCO1`: the T/C was 151 % of control (dose: 6.25 mg/kg/injection, schedule: Q01DX005 (ip), vehicle: Klucel (hydroxypropylcellulose) (HPC)) and 169 % of control (dose: 12.5 mg/kg/injection, schedule: Q01DX005 (ip), vehicle: Klucel (hydroxypropylcellulose) (HPC)).
In the case of `Cc1c2cc[n+](C)c(C)c2cc2c1[nH]c1ccc(O)cc12`, the T/C was 157 % of control (dose: 10.0 mg/kg/injection, schedule: Q04DX002 (ip), vehicle: water); 162 % of control (dose: 20.0 mg/kg/injection, schedule: Q04DX002 (ip), vehicle: water); 89 % of control (dose: 40.0 mg/kg/injection, schedule: Q04DX002 (ip), vehicle: water); 88 % of control (dose: 50.0 mg/kg/injection, schedule: Q04DX002 (ip), vehicle: water).
In the case of `CCN(CC)c1ccc2cc(-n3nnc4ccccc43)c(=O)oc2c1`, the T/C (dose: 60.0 mg/kg/injection, schedule: Q01DX005 (ip), vehicle: saline with Tween-80) was 96 % of control; the T/C (dose: 120.0 mg/kg/injection, schedule: Q01DX005 (ip), vehicle: saline with Tween-80) is 96 % of control; the T/C (dose: 240.0 mg/kg/injection, schedule: Q01DX005 (ip), vehicle: saline with Tween-80) is 99 % of control.
As for `CC1OC(OC2CC(O)(C(=O)CO)Cc3c(O)c4c(c(O)c32)C(=O)c2ccccc2C4=O)CC(N)C1O` (stereo not drawn), the T/C reads like this: (dose: 0.05 mg/kg/injection, schedule: Q01DX009 (ip), vehicle: water) 159 % of control; (dose: 0.1 mg/kg/injection, schedule: Q01DX009 (ip), vehicle: water) 185 % of control and 216 % of control; (dose: 0.2 mg/kg/injection, schedule: Q01DX009 (ip), vehicle: water) 221 % of control and 261 % of control; (dose: 0.21 mg/kg/injection, schedule: Q04DX003 (ip), vehicle: water) 172 % of control; (dose: 0.25 mg/kg/injection, schedule: Q04DX003 (ip), vehicle: water) 101 % of control and 122 % of control; (dose: 0.36 mg/kg/injection, schedule: Q04DX003 (ip), vehicle: water) 209 % of control. The T/C runs as follows: (dose: 0.39 mg/kg/injection, schedule: Q01DX009 (ip), vehicle: water) 115 % of control; (dose: 0.4 mg/kg/injection, schedule: Q01DX009 (ip), vehicle: water) 115 % of control; (dose: 0.5 mg/kg/injection, schedule: Q04DX003 (ip), vehicle: water) 157 % of control; (dose: 0.6 mg/kg/injection, schedule: Q04DX003 (ip), vehicle: water) 239 % of control; (dose: 0.78 mg/kg/injection, schedule: Q01DX009 (ip), vehicle: water) 86 % of control; (dose: 1.0 mg/kg/injection, schedule: Q04DX003 (ip), vehicle: water) 167 % of control and 183 % of control. Also, the T/C by setting is: (dose: 1.3 mg/kg/injection, schedule: Q01DX001 (ip), vehicle: water) 216 % of control; (dose: 2.4 mg/kg/injection, schedule: Q01DX001 (ip), vehicle: water) 104 % of control; (dose: 3.2 mg/kg/injection, schedule: Q01DX001 (ip), vehicle: water) 97 % of control; (dose: 4.0 mg/kg/injection, schedule: Q04DX003 (ip), vehicle: water) 104 % of control.
As to `NC(CS)C(=O)[O][Sn]([O]C(=O)C(N)CS)([O]C(=O)C(N)CS)[O]C(=O)C(N)CS` (stereo not drawn), the T/C is, setting by setting: (dose: 50.0 mg/kg/injection, schedule: Q01DX005 (ip), vehicle: Klucel (hydroxypropylcellulose) (HPC)) 99 % of control; (dose: 100.0 mg/kg/injection, schedule: Q01DX005 (ip), vehicle: Klucel (hydroxypropylcellulose) (HPC)) 108 % of control; (dose: 200.0 mg/kg/injection, schedule: Q01DX005 (ip), vehicle: Klucel (hydroxypropylcellulose) (HPC)) 89 % of control.
Consider `O=C1/C(=C/c2cccc(O)c2O)SC(=S)N1CCCN1CCOCC1`, for which the T/C is 98 % of control under setting [1], 107 % of control under setting [2] and 92 % of control under setting [3].
Regarding `OCC(O)CCBr` (stereo not drawn), the T/C (dose: 12.5 mg/kg/injection, schedule: Q01DX009 (ip), vehicle: saline with Tween-80) is 107 % of control; the T/C (dose: 25.0 mg/kg/injection, schedule: Q01DX009 (ip), vehicle: saline with Tween-80) is 107 % of control; the T/C under setting [1] was 114 % of control and 96 % of control; the T/C under setting [2] was 89 % of control; the T/C (dose: 100.0 mg/kg/injection, schedule: Q04DX003 (ip), vehicle: saline) was 118 % of control; the T/C under setting [3] is 95 % of control. The T/C runs as follows: (dose: 200.0 mg/kg/injection, schedule: Q04DX003 (ip), vehicle: saline) 122 % of control; (dose: 264.0 mg/kg/injection, schedule: Q01DX009 (ip), vehicle: saline sonified) 159 % of control; (dose: 264.0 mg/kg/injection, schedule: Q04DX003 (ip), vehicle: saline) 110 % of control; (dose: 400.0 mg/kg/injection, schedule: Q01DX009 (ip), vehicle: saline sonified) 181 % of control; (dose: 600.0 mg/kg/injection, schedule: Q01DX009 (ip), vehicle: saline sonified) 186 % of control; (dose: 600.0 mg/kg/injection, schedule: Q04DX003 (ip), vehicle: saline) 115 % of control.
